# From patent US9637488B2, “Heterocyclic compounds as inhibitors of class I PI3KS” (priority 2015, dated 2017)
# Key:
# Type in all cases: biochemical
# PI3Kδ (p110δ/p85α) = PI3Kδ (p110δ/p85α) (Homo sapiens (Human), UniProt O00329); assay: cell-free PI3K HTRF assay, PI3Kδ; conditions: for IC50: 10-dose IC50 mode, 3-fold serial dilution starting at 1 μM, ATP 10 μM, read-out: IC50 value for the inhibition of PI3Kδ; for potency or inhibition against PI3Kδ (in words): qualitative statement
# PI3Kγ (p110γ) = PI3Kγ (p110γ) (Homo sapiens (Human), UniProt P48736); assay: cell-free PI3K HTRF assay, PI3Kγ; conditions: ratio of IC50 against PI3Kγ related to PI3Kδ; 10-dose, 3-fold serial dilution starting at 10 μM
# Sequence of PI3Kγ (p110γ) (P48736 whole entry): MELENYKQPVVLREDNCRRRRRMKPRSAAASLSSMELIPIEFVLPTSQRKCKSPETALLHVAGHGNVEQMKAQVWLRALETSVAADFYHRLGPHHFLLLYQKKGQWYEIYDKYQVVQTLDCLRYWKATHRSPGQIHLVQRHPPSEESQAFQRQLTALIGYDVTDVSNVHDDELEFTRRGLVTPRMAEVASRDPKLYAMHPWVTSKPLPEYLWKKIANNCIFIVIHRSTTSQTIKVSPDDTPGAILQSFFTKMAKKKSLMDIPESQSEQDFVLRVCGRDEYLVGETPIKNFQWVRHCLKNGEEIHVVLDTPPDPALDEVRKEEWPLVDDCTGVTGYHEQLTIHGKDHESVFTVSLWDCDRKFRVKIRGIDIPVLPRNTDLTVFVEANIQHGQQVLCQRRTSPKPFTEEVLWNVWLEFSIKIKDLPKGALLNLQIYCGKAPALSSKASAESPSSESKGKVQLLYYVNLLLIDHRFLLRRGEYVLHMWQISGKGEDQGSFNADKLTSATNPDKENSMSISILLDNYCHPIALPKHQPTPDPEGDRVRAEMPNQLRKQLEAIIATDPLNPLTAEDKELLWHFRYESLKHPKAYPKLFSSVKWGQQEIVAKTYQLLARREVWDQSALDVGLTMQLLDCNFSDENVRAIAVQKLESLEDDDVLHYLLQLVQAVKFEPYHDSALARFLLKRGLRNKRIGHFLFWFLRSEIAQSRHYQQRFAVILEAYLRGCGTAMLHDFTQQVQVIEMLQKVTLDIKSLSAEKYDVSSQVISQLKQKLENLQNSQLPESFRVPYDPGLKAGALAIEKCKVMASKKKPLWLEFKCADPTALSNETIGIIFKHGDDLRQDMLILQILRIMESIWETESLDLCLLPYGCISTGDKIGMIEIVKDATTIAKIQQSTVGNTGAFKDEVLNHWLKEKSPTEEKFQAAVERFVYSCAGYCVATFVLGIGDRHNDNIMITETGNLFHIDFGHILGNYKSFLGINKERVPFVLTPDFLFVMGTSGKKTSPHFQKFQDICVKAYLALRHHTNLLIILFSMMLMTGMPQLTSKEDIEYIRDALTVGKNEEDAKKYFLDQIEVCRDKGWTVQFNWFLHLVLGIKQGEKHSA
# Method: (§1) Exemplary compounds of the invention were tested for inhibitory activity and potency against class I PI3Ks (p110α/p85α, p110β/p85α, p110δ/p85α and p110γ) using a cell-free based PI3K HTRF assay. This assay was used to detect the formation of the product 3,4,5-inositol triphosphate molecule (PIP3) by displacement of biotin-PIP3 from an energy transfer complex consisting of Europium labeled anti-GST monoclonal antibody, a GST-tagged pleckstrin homology (PH) domain, biotinylated PIP3 and Streptavidin-Allophycocyanin (APC). Excitation of Europium in the complex results in an energy transfer to the APC and a fluorescent emission at 665 nm. The PIP3 product formed by human PI 3-Kinase activity displaces biotin-PIP3 from the complex resulting in a loss of energy transfer and thus a decrease in signal.
# (§2) Human class I PI3K isoforms were co-expressed in a Baculovirus infected cell expression system. The PI3K isoforms were assayed in the presence of HEPES (50 mM, pH 7.0), NaN3 (0.02%), BSA (0.01%), orthovanadate (0.1 mM), and DMSO (1%). The exemplary compounds dissolved in DMSO were delivered into the kinase reaction mixture by Acoustic technology (Echo550; nanolitter range), and were pre-incubated for 10 min at room temperature before adding ATP (10 μM) to initiate the reaction. After 30 min at 30° C., the reactions were quenched with a stop solution, incubated overnight with a detection mixture before measuring HTRF (Ex: 320 nm; Em: 615/665 nm). The emission ratio is converted into μM PIP3 production based on PIP3 standard curves, and the nonlinear regression to obtain the standard curve and IC50 values are performed using Graphpad Prism software.
# (§3) The assays were performed at Reaction Biology Corporation, One Great Valley Parkway, Suite 2, Malvern, Pa. 19355, USA.
# (§4) Exemplary compounds of the invention selected were further tested their inhibitory activity or potency against PI3Kα, PI3Kβ, and PI3Kγ in 10-dose IC50 mode with 3-fold serial dilution starting at 10 μM. […] Table 5 below illustrates the selectivity of the exemplary compounds using the ratios of the IC50 values of the compounds against PI3Kα, PI3Kβ, and PI3Kγ related to PI3Kδ. […] Such unexpected selectivity against PI3Kδ and/or PI3Kγ is attributed to the unusual overall shape of the molecules of formula (I) and (II), and the optimal selection of R1, R2, R3, R4, X, and Y defined in formula (I) and (II) in order to bind favorably in the ATP-binding pocket of PI3Kδ and/or PI3Kγ versus other class I isozymes.
# PI3Kβ (p110β/p85α) = PI3Kβ (p110β/p85α) (Homo sapiens (Human), UniProt P42338); assay: cell-free PI3K HTRF assay, PI3Kβ; conditions: ratio of IC50 against PI3Kβ related to PI3Kδ; 10-dose, 3-fold serial dilution starting at 10 μM
# Sequence of PI3Kβ (p110β/p85α) (P42338 whole entry): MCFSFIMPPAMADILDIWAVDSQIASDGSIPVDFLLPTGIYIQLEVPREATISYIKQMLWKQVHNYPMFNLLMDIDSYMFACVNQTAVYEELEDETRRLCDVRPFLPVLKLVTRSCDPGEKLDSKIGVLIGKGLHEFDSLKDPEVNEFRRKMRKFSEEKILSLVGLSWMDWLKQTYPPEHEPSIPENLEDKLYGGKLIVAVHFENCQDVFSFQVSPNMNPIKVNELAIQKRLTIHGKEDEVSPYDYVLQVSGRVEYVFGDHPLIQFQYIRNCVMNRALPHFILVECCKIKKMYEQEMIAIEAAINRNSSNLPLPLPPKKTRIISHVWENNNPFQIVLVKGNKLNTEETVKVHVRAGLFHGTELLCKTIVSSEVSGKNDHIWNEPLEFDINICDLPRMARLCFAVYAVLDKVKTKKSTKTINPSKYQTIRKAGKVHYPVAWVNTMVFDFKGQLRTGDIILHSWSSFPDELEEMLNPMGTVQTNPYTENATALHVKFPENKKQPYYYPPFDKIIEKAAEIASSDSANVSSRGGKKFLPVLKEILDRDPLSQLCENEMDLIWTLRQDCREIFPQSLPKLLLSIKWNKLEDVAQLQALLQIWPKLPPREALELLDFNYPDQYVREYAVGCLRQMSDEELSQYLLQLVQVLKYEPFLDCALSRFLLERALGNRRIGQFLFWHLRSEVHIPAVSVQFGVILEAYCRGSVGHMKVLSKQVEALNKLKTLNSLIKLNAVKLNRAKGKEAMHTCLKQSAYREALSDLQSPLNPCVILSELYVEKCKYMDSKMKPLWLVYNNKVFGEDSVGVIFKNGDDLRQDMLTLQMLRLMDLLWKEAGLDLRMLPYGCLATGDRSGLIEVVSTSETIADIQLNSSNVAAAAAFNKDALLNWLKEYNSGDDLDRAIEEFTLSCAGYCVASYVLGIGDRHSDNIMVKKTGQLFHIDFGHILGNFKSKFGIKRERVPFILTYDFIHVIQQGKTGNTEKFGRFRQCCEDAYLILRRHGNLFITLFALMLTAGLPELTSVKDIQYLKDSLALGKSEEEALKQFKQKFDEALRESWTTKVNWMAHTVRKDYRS
# Sequence of PI3Kβ (p110β/p85α) (P27986 whole entry partner): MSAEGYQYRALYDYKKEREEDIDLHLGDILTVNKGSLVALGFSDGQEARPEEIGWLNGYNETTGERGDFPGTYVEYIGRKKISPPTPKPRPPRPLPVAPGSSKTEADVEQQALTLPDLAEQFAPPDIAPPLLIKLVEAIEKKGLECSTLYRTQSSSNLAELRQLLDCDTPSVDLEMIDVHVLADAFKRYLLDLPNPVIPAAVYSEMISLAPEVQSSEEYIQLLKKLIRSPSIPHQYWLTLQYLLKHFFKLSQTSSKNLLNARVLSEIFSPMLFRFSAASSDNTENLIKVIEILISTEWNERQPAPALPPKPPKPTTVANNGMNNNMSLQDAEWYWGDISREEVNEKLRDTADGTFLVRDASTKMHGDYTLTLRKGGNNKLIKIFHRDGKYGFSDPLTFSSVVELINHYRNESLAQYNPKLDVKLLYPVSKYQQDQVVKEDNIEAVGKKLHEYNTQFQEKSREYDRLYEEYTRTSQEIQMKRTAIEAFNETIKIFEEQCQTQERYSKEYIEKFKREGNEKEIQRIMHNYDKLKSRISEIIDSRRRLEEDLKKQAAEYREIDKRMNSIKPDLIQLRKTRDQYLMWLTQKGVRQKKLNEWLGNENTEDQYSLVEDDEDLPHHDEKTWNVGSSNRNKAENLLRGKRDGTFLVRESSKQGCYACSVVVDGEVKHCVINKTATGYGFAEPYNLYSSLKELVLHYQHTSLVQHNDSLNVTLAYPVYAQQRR
# Method: as §1, §2, §3, §4
# PI3Kα (p110α/p85α) = PI3Kα (p110α/p85α) (Homo sapiens (Human), UniProt P42336); assay: cell-free PI3K HTRF assay, PI3Kα; conditions: ratio of IC50 against PI3Kα related to PI3Kδ; 10-dose, 3-fold serial dilution starting at 10 μM
# Sequence of PI3Kα (p110α/p85α) (P42336 whole entry): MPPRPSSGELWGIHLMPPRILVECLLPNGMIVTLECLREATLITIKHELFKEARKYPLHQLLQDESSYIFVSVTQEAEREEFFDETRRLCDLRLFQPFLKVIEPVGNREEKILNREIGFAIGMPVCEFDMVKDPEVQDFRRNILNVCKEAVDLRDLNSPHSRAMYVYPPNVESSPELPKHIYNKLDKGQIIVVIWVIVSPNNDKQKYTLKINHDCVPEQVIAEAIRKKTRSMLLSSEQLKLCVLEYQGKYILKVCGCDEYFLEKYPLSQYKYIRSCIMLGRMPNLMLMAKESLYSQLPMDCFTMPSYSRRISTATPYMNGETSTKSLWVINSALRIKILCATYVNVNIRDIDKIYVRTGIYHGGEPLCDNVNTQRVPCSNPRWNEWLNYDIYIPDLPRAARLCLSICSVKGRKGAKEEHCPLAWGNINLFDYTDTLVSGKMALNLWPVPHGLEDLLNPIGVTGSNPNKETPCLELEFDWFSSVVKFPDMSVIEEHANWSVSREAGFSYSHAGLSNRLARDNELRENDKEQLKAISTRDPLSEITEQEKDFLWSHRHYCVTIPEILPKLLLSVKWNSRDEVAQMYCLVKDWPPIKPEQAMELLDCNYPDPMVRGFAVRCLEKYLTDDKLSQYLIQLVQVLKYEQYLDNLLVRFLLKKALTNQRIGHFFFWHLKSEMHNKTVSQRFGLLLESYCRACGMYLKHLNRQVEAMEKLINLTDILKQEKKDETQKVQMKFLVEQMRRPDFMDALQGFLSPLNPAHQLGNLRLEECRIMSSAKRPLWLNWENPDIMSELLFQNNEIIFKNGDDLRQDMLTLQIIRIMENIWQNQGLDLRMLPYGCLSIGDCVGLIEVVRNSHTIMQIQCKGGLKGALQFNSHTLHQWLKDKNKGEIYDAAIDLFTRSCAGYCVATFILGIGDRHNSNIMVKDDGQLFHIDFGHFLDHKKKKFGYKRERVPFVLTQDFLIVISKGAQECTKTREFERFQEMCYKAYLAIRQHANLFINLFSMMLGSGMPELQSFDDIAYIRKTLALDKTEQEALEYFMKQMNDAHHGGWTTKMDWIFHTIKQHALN
# Sequence of PI3Kα (p110α/p85α) (P27986 whole entry partner): as the sequence (P27986 whole entry partner) above
# Method: as §1, §2, §3, §4
# Sequence of PI3Kδ (p110δ/p85α) (O00329 whole entry): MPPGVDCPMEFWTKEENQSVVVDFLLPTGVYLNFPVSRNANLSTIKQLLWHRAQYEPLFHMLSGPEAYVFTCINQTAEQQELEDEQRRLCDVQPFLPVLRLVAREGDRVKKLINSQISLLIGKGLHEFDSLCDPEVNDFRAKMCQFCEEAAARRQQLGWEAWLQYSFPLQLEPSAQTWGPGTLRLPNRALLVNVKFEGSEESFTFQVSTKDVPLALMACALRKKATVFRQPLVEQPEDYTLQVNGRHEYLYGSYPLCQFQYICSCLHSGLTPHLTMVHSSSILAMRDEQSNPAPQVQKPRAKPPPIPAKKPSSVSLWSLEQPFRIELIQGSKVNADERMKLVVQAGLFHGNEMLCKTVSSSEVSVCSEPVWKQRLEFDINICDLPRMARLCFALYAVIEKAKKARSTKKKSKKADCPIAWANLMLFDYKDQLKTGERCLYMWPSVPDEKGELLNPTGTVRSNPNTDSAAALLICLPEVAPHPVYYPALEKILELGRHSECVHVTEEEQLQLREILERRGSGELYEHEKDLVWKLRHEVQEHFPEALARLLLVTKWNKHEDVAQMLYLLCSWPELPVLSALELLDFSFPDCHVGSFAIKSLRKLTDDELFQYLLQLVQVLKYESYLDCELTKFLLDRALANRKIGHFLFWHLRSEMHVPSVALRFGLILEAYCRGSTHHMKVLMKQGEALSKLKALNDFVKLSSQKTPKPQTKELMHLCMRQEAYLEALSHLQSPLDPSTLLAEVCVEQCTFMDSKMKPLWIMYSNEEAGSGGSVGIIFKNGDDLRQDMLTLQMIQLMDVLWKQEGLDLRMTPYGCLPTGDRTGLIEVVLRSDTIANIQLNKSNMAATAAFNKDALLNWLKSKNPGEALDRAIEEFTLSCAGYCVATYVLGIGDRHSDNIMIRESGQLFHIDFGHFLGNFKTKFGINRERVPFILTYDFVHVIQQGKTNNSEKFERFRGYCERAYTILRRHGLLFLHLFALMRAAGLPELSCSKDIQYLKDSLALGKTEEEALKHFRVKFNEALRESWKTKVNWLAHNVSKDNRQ
# Sequence of PI3Kδ (p110δ/p85α) (P27986 whole entry partner): as the sequence (P27986 whole entry partner) above
IC50 (PI3Kδ (p110δ/p85α)) [nM],Ratio (γ/δ) (PI3Kγ (p110γ)),Ratio (β/δ) (PI3Kβ (p110β/p85α)),Ratio (α/δ) (PI3Kα (p110α/p85α)),potency or inhibition against PI3Kδ (in words) (PI3Kδ (p110δ/p85α)),Compound
> 1000,–,–,–,week potency or inhibition,Cn1c(=O)n(C)c2c(N3CCCC3c3cc4ccc(F)cc4nc3-c3ccccn3)ncnc21 (stereo not shown) [Compound 13]
2.2,145,1153,3360,–,Fc1ccc2cc(C3CCCN3c3ncnc4[nH]cnc34)c(N3CCCCC3)nc2c1 (stereo not shown) [Compound 16]
0.9,1.1,1714,5958,–,Nc1nc(N2CCCC2c2cc3ccc(F)cc3nc2N2CCCCC2)c2nc[nH]c2n1 (stereo not shown) [Compound 17]
103,16,>97,–,–,"Fc1ccc2cc(C3CC=CCN3c3ncnc4[nH]cnc34)c(-c3ccccc3)nc2c1 (stereo not shown) [Compound 31, 3-(1-(9H-purin-6-yl)-1,2,3,6-tetrahydropyridin-2-yl)-7-fluoro-2-phenylquinoline]"
6.2,152,297,–,–,N#Cc1c(N)ncnc1N1CC=CCC1c1cc2ccc(F)cc2nc1N1CCOCC1 (stereo not shown) [Compound 44]

# The remaining lines, values behind:
Compound,IC50 (PI3Kδ (p110δ/p85α)) [nM],Ratio (γ/δ) (PI3Kγ (p110γ)),Ratio (β/δ) (PI3Kβ (p110β/p85α)),Ratio (α/δ) (PI3Kα (p110α/p85α)),potency or inhibition against PI3Kδ (in words) (PI3Kδ (p110δ/p85α))
"Fc1ccc2cc(C3CCCN3c3ncnc4[nH]cnc34)c(-c3cccnc3)nc2c1 (stereo not shown) [Compound 1, 3-(1-(9H-purin-6-yl)pyrrolidin-2-yl)-7-fluoro-2-(pyridin-3-yl)quinoline]",27,39,267,–,–
"N#Cc1c(N)ncnc1N1CCCC1c1cc2ccc(F)cc2nc1N1CCOCC1 (stereo not shown) [Compound 7, 4-amino-6-(2-(7-fluoro-2-morpholinoquinolin-3-yl)pyrrolidin-1-yl)pyrimidine-5-carbonitrile]",1.6,111,344,1000,–
"Fc1ccc2cc(C3CCCN3c3ncnc4[nH]cnc34)c(-c3ccccn3)nc2c1 (stereo not shown) [Compound 10, 3-(1-(9H-purin-6-yl)pyrrolidin-2-yl)-7-fluoro-2-(pyridin-2-yl)quinoline]",13,53,519,>781,–
Fc1ccc2cc(C3CCCN3c3ncnc4[nH]cnc34)c(-c3ccncc3)nc2c1 (stereo not shown) [Compound 14],521,3.3,4.2,>19,–
N#Cc1c(N)ncnc1N1CCCC1c1cc2ccc(F)cc2nc1-c1ccncc1 (stereo not shown) [Compound 15],62,2.2,11,138,–
N#Cc1c(N)ncnc1N1CCCC1c1cc2ccc(F)cc2nc1N1CCCCC1 (stereo not shown) [Compound 18],0.1,955,14712,>100000,–
Nc1cc(N2CCCC2c2cc3ccc(F)cc3nc2-c2ccccc2)nc(N)n1 (stereo not shown) [Compound 28],> 1000,–,–,–,–
Fc1ccc2cc(C3CCCCN3c3ncnc4[nH]cnc34)c(-c3ccccc3)nc2c1 (stereo not shown) [Compound 41],240,–,–,–,–
N#Cc1c(N)ncnc1N1CC=CCC1c1cc2ccc(F)cc2nc1-c1ccccc1 (stereo not shown) [Compound 42],55,103,>181,–,–
"Fc1ccc2cc(C3CCCCCN3c3ncnc4[nH]cnc34)c(-c3ccccc3)nc2c1 (stereo not shown) [Compound 45, 3-(1-(9H-purin-6-yl)azepan-2-yl)-7-fluoro-2-phenylquinoline]",> 1000,–,–,–,week potency or inhibition
